In patent US5866573A, “Pyrazinone thrombin inhibitors” (Merck & Co., Inc., priority 1997, dated 1999):

What was measured:
thrombotic occlusion = test: In vivo rat ferric chloride assay to measure thrombotic occlusions; parameters: species or system Male Sprague-Dawley rats; details: 10 μg/kg/min i.v. infusion from 60 min before 35% FeCl3 and 90 min after, 6 rats
Protocol: Studies of 3 (2-Phenylethylarnino)-6-methyl-1-(2-amino-6-following rat ferric chloride assay substantially as described in Thrombosis Research, No. 60, page 269(1990) by Kurtz et al were used to determine in vivo activity of the thrombin inhibitors of the invention. Male Sprague-Dawley rats (b)ody weights 200-350 grams) were anesthetized with dial-urethane solution (0.1 ml/100 gm body weight i.p.), and a lateral tail vein was cannulated with a 23 gauge needle connected to a 12 inch length of PE50 tubing. The tubing was attached to a 3-way valve by a tubing adapter. Saline (control) or test compound, as appropriate, was administered via the tail vein catheter. A tracheostomy was performed with a 0.75 inch length of PE205 tubing. The right carotid artery is exposed and a 1.3 mm diameter Doppler flow probe was placed on the vessel. Body temperature was maintained at 37° C. using a heat lamp.
6 rats were randomized to continuous intravenous infusions of saline or test compound administered via the tail vein. Test compound was administered at a rate of 10 μg/kg/min. Treatment infusions were initiated 60 min before the placement of a 3 mm square piece of Whatman No. 1 filter paper saturated with 35% FeCl3 onto the exposed carotid artery distal to the flow probe. […] Time to occlusion was defined as the time from application of FeCl3 to thrombotic occlusion of the vessel.

human α-thrombin = human α-thrombin (Homo sapiens, UniProt P00734); test: In vitro assay for determining proteinase inhibition: human α-thrombin; assay type: biochemical; details: inhibitory activity against human thrombin, class symbols of Tables 1-3; 25° C., pH 7.4
Protocol: Assays of human α-thrombin and human trypsin were performed by the methods substantially as described in Thrombosis Research, Issue No. 70, page 173 (1993) by S. D. Lewis et al.
The assays were carried out at 25° C. in 0.05M TRIS buffer pH 7.4, 0.15M NaCl, 0.1% PEG. Trypsin assays also contained 1 mM CaCl2. In assays wherein rates of hydrolysis of a p-nitroanilide (pna) substrate were determined, a Thermomax 96-well plate reader was used was used to measure (at 405 nm) the time dependent appearance of p-nitroaniline. sar-PR-pna was used to assay human α-thrombin (Km =125 μM) and bovine trypsin (Km =125 μM). p-Nitroanilide substrate concentration was determined from measurements of absorbance at 342 nm using an extinction coefficient of 8270 cm^-1 M^-1.
In certain studies with potent inhibitors (Ki <10 nM) where the degree of inhibition of thrombin was high, a more sensitive activity assay was employed. In this assay the rate of thrombin catalyzed hydrolysis of the fluorogenic substrate Z-GPR-afc (Km =27 μM) was determined from the increase in fluorescence at 500 nm (excitation at 400 nm) associated with production of 7-amino-4-trifluoromethyl coumarin. Concentrations of stock solutions of Z-GPR-afc were determined from measurements of absorbance at 380 nm of the 7-amino-4-trifluoromethyl coumarin produced upon complete hydrolysis of an aliquot of the stock solution by thrombin.
Activity assays were performed by diluting a stock solution of substrate at least tenfold to a final concentration ≤0.1 Km into a solution containing enzyme or enzyme equilibrated with inhibitor. Times required to achieve equilibration between enzyme and inhibitor were determined in control experiments. Initial velocities of product formation in the absence (Vo) or presence of inhibitor (Vi) were measured. […]

| SMILES | efficacy in rat ferric chloride assay (thrombotic occlusion) | rats showing evidence of thrombotic occlusion (thrombotic occlusion) | Ki (human α-thrombin) |
| --- | --- | --- | --- |
| Cc1nc(N)ccc1CNC(=O)Cn1c(C)cnc(NCCc2ccccc2)c1=O [test compound] | fully efficacious | None of the rats treated with the test compound showed evidence of thrombotic occlusion | – |
| CCNC(=O)COc1ccccc1CNC(=O)Cn1c(C)cnc(NCCc2ccccc2)c1=O [H, NHC2 H5] | – | – | < 1 nM |
| Cc1nc(N)ccc1CNC(=O)Cn1c(C)cnc(NC(C)(C)Cc2ccccc2)c1=O [PhCH2 C(CH3)2] | – | – | ≥ 1 nM |
| CCNC(=O)COc1ccc(Cl)cc1CNC(=O)Cn1c(C)cnc(NC(C)(C)C)c1=O [t-C4 H9] | – | – | ≥ 1 nM |
